Data: patent US9662305B2 (REVIVE THERAPEUTICS INC., priority 2012, dated 2017)

Assays:
[1] = system: patients; conditions: febuxostat 80 mg/day; cited from earlier work
[2] = system: subjects with acute gout flares; assay: Open-label, active-controlled clinical trial in acute gout flares; conditions: for proportion of subjects with ≧50% reduction in target joint pain score from baseline at 72 hours post-dose: PI-NRS
Description: The primary efficacy endpoint is the proportion of patients who responded to treatment. Treatment responders are defined as a ≧50% reduction in target joint pain score from baseline at 72 hours post-dose without using rescue drug. The target joint pain score is an 11-point Pain Intensity Numeric Rating Scale (PI-NRS) used to assess joint pain intensity while experiencing a gout flare on a scale from 0 (no pain) to 10 (worst possible pain).

[3] = system: mouse peritoneal macrophages; assay: MSU crystal-induced cytokine release from mouse peritoneal macrophages
Description: Male C57/BL/6 mice were injected intraperitoneally with 4% thioglycollate solution and the macrophages collected by peritoneal lavage 3 days later.^57 The cells were plated at a density of 7×10^5 cells in 12-well dishes and non-adherent cells were removed after 3 hours. The cells were cultured in RPMI containing 10% FCS, sodium pyruvate, penicillin/streptomycin and L-glutamine. […] The concentration of IL-1β in the supernatant was determined with an R&D systems Quantikine mouse immunoassay.

[4] = system: Male C57/BL/6 mice; assay: Monosodium urate crystal-induced peritoneal inflammation in mice; assay type: in vivo, mouse; conditions: for decrease of mean neutrophil influx for every increase of 1 μmol/kg of the drug: single drug i.p., MSU crystals 0.5 mg i.p., logarithmic model
Description: Colchicine was dissolved in PBS and administered at a dose of 0.05, 0.5 and 5 μmol/kg in a similar fashion. […] The mice were euthanised after 6 hours with CO2 and the peritoneal cells removed by lavage with 10 mL of cold PBS. The lavage fluid was analysed for neutrophil infiltration using a cytospin and Diff-Quick staining. The concentrations of IL-1β and IL-6 in the lavage supernatants was determined using an R&D Systems Quantikine mouse immunoassay.

[5] = system: hyperuricaemic mice; assay: Hyperuricaemic (potassium oxonate) mice: serum and urinary uric acid, urinary creatinine; assay type: in vivo, mouse
Description: A total of 45 C57/Black 6 mice in 9 groups (n=5) were studied for a period of one week. The drugs were dissolved or dispersed in distilled water immediately prior to dosing and administered in a volume of 15 mL/kg by gastric gavage. The volume of drug administered was based on the body weight determined on the day of dosing. […] Whole blood and urine samples were collected 1 h after final drug administration on the seventh day. […] The serum and urine were stored at −80° C. until assayed. The uric acid levels in serum and urine were determined by the phosphotungstic acid method.^54 The creatinine levels in serum were determined spectrophotometrically using standard diagnostic kits.

[6] = system: THP-1 cells; conditions: THP-1 cells stimulated with lipopolysaccharide; cited from earlier work

## Cc1nc(-c2ccc(OCC(C)C)c(C#N)c2)sc1C(=O)O [febuxostat]
[1]
  patients who previously failed to normalise uric acid levels (<360 μmol/L) on allopurinol and also failed: 59%

## COc1cc2c(c(OC)c1OC)-c1ccc(OC)c(=O)cc1[C@@H](NC(C)=O)CC2 [colchicine]
[2]; Arm C, 1.8 mg, 5/12 subjects
  proportion of subjects with ≧50% reduction in target joint pain score from baseline at 72 hours post-dose: 42%
[2]; any of the treatment arms, seven-day treatment period
  related serious adverse events: No related serious adverse events
[3]; colchicine alone, logarithmic model
  decrease of average MSU crystal-induced IL-1β production for every increase of 1 μmol/kg: 29.6%
[4]; 6 hours
  decrease of mean neutrophil influx for every increase of 1 μmol/kg of the drug: 18.3%

## Oc1ncnc2[nH]ncc12 [allopurinol]
[5]; allopurinol 5 mg/kg/day, 7 days, to a level below normal baseline
  effect on serum urate: highly significant (p<0.001) drop in serum urate
[5]; allopurinol 5 mg/kg/day, level still below normal baseline
  effect on urinary uric acid: highly significant (p<0.001) increase in urinary uric acid

## CC(C)(S)C(=O)N[C@@H](CS)C(=O)O [bucillamine, N-(2-mercapto-2-methylpropionyl)-L-cysteine]
[2]; Arm A, 900 mg, 2/8 subjects
  proportion of subjects with ≧50% reduction in target joint pain score from baseline at 72 hours post-dose: 25%
[2]; Arm B, 1,800 mg, 6/9 subjects
  proportion of subjects with ≧50% reduction in target joint pain score from baseline at 72 hours post-dose: 67%
[2]; Arm B, 1,800 mg, all subjects, seven-day treatment period
  use of rescue medication: completed the treatment period without the use of rescue medication
[3]; MSU crystals 50 μg/mL, 6 hours
  decrease in average IL-1β cytokine production with each additional 1 μmol/kg increase: 30.7 pg/mL
  decrease in average IL-6 cytokine production with each additional 1 μmol/kg increase: 13.7 pg/mL
[3]; addition of bucillamine 10 μmol/kg to colchicine
  decrease in average MSU crystal-induced IL-1β production: 65.0%
[4]; after injection of monosodium urate crystals, mouse
  release of IL-1β and IL-6 into the peritoneal cavity: attenuated
[4]; bucillamine 10 μmol/kg added to colchicine, MSU crystals i.p., 6 hours
  effect of addition of bucillamine on average neutrophil influx: highly significant (p<0.001) decrease in average neutrophil influx
[4]; 6 hours
  decrease of mean neutrophil influx for every increase of 1 μmol/kg of the drug: 5.15%
[5]; bucillamine alone, 7 days, dose-response slope
  increase of mean urinary uric acid for each increase of 1 mg/kg/day: 0.079 mg/dL
[5]; bucillamine alone, gastric gavage, 7 days, dose-response slope
  reduction of mean serum urate for each increase of 1 mg/kg/day: 0.0067 mg/dL
[6]
  release of TNF-α, IL-1β and IL-8: attenuated
